Experimental findings from the NIST ThermoML archive (doi:10.1016/j.jct.2016.10.029) are described below.

The conditions of data set [1]: Crystal; DTA.
A short description of data set [2]: Molar enthalpy of transition or fusion. As to conditions: Crystal; DSC.

± gives the expanded uncertainty stated by the source.

For `CCOc1cc(C=O)ccc1O` [3-ethoxy-4-hydroxybenzaldehyde], the Normal melting temperature in data set [1] turned out to be 79.83 ± 1.1 °C. Further, the “Molar enthalpy of transition or fusion” value in data set [2] is 5.68 ± 0.263 kcal/mol.
